{"source": "patent US20260250278A1", "about": "“PHENYL-SUBSTITUTED DIHYDRONAPHTHYRIDINE COMPOUNDS, AND PREPARATION AND USE THEREOF” (SUZHONG PHARMACEUTICAL GROUP CO., LTD., priority 2022, published 2026)"}
{"target": "T1, mineralocorticoid receptor (MR) (Homo sapiens, UniProt P08235)", "T1 construct": "expressed in transfected cells", "T1 sequence (P08235 726-964 limits assumed)": "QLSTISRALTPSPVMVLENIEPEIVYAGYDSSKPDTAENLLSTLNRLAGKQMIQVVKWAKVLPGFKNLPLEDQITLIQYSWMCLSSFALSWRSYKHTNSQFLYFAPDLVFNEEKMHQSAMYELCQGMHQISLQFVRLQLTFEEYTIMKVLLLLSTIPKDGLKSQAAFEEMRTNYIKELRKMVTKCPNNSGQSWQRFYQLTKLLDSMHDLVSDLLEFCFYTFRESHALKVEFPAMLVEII", "assay": "MR Gal4-LBD luciferase reporter gene assay in HEK293T cells (antagonism of 0.8 nM aldosterone)", "assay_type": "cell-based", "description": "By the characteristic of chemiluminescence reaction produced by combination of luciferase and substrate, a Gal4 DNA binding domain (DBD) fused plasmid containing a mineralocorticoid receptor (MR) ligand binding domain (LBD) and a firefly luciferase reporter gene plasmid under the control of Gal4 UAS (upstream activation sequence) were transfected into human embryonic kidney cells (HEK293). Changes of […] were judged by a level of firefly luciferase activity.\nAll compounds were dissolved in DMSO to prepare a 25 mM stock solution, and stored in a refrigerator at −20° C.\n• 1) A compound to be tested was subjected to 3-times gradient dilution with the DMSO, with 10 concentration gradients and an initial concentration of 10 mM. • 2) A positive compound (Finerenone) was subjected to 3-times gradient dilution with the DMSO, with 10 concentration gradients and an initial concentration of 1 mM. • 3) 1000× positive control (1 mM, Finerenone) and 1000× negative control (100% DMSO) were prepared. • 4) A compound plate was sealed and shaken for 5 minutes.\n• 5) All cells were cultured by ATCC standard operation, and HEK293T was experimented in an exponential growth phase. • 6) A culture medium supernatant was gently discarded. The cells were washed with PBS twice.\n(3) The cells were digested with pancreatin digestive juice, the digestion was stopped with a complete culture solution, and then the cells were collected and counted.\n(4) 6×10^6 HEK293T cells were inoculated into a 100 mm cell culture dish.\n(5) The culture dish inoculated with the cells was cultured in a 5% CO2 incubator at 37° C. for 16 hours overnight.\n• 1) Lipofectamine® 3000&P3000 transfection reagents were placed at room temperature. • 2) The Lipofectamine® 3000 reagent was added into an Opti-MEM™ culture medium, and meanwhile, the P3000, the plasmid and the Opti-MEM™ culture medium were added into another tube, taking care not to touch the tube wall. • 3) The mixture was mixed evenly by a pipette, and allowed to stand at room temperature for 5 minutes. • 4) The plasmid was added into the diluted transfection reagent, mixed evenly by a pipette, and allowed to stand at room temperature for 20 minutes. • 5) The transfection reagent mixed with the plasmid was added into a […] cell culture dish. • 6) The culture dish was cultured in a 5% CO2 incubator at 37° C. for 5 hours to 6 hours.\n• 1) 25 nL of diluted compound was transferred to a cell culture plate with Echo655. • 2) The cells (referring to step 1.3) were inoculated into a 384 cell culture plate, with 17,000 cells, 25 μL of phenol red-free DMEM culture medium containing 5% CFBS and 0.8 nM Aldosteron per well.\n(3) The cell culture plate was cultured in a 5% CO2 incubator at 37° C. for 18 hours to 20 hours overnight.\n• 1) A Britelite plus detection reagent was placed at room temperature. 2) The 384 cell plate was placed at room temperature. • 3) 25 μL of Britelite plus detection reagent was added into each well of the cell culture plate. • 4) A luminescence was detected with Envision.\n• 1) a firefly luciferase signal was obtained by reading the Luminescence to calculate an inhibition rate; • 2) % inhibition rate=100−[(RLU compound−avgRLU positive control)/(RLU negative control−avgRLU positive control)×100%, wherein the avgRLU positive control was an average value of Luminescences of all positive control wells in the whole plate; the avgRLU negative control was an average value of Luminescences of all negative control wells in the whole plate; and the RLU compound was Luminescence values of compounds to be tested with different concentrations; and • 3) IC50 of the compound was calculated by Graphpad8.0 Drawing software.", "units": {"IC50": "nM"}}
{"molecule": "CCOc1ncc(C)c2c1C(c1ccc(C#N)cc1OC)C(c1ncco1)=C(C)N2", "note": "(stereo not drawn) [Example 1]", "IC50": 192}
{"molecule": "CCOc1ncc(C)c2c1C(c1ccc(C#N)cc1OC)C(c1nnco1)=C(C)N2", "note": "(stereo not drawn) [Example 2, 4-(5-ethoxy-2,8-dimethyl-3-(1,3,4-oxadiazole-2-yl)-1,4-dihydro-1,6-naphthyridine-4-yl)-3-methoxybenzonitrile]", "IC50": 48.9}
{"molecule": "CCOc1ncc(C)c2c1C(c1ccc(C#N)cc1OC)C(c1nnc(C)o1)=C(C)N2", "note": "(stereo not drawn) [Example 3, 4-(5-ethoxy-2,8-dimethyl-3-(5-methyl-1,3,4-oxadiazole-2-yl)-1,4-dihydro-1,6-naphthyridine-4-yl)-3-methoxybenzonitrile]", "IC50": 113}
{"molecule": "CCOc1nc2c(c3c1C(c1ccc(C#N)cc1OC)C(C(N)=O)=C(C)N3)CCC2", "note": "(stereo not drawn) [Example 4, 4-(4-cyano-2-methoxyphenyl)-5-ethoxy-2-methyl-4,7,8,9-tetrahydrocyclopentane-1H-cyclopentamide]", "IC50": 111}
{"molecule": "COc1cc(C#N)ccc1C1C(C#N)=C(C)Nc2c1ccc1c2CCC1", "note": "(stereo not drawn) [Example 5, 4-(4-cyano-2-methoxyphenyl)-2-methyl-4,7,8,9-tetrahydrocyclopentane-3-carbonitrile]", "IC50": 235}
{"molecule": "CCOc1ncc(C)c2c1C(c1ccc(C#N)c3c1OCCC3)C(C(N)=O)=C(C)N2", "note": "(stereo not drawn) [Example 6, 4-(5-cyanored-8-yl)-5-ethoxy-2,8-dimethyl-1,4-dihydro-1,6-naphthyridine-3-formamide]", "IC50": 21.6}
{"molecule": "COc1cc(C#N)ccc1C1C(C#N)=C(C)Nc2c(C)cn3nccc3c21", "note": "(stereo not drawn) [Example 7, 10-(4-cyano-2-methoxyphenyl)-6,8-dimethyl-7H,10H-pyrazolo[3,2-f]1,6-naphthyridine-9-carbonitrile]", "IC50": 322}
{"molecule": "COc1cc(C#N)ccc1C1C(C#N)=C(C)Nc2sc3ccccc3c21", "note": "(stereo not drawn) [Example 8, 4-(4-cyano-2-methoxyphenyl)-2-methyl-1,4-dihydrobenzo[4,5]thieno[2,3-b]pyridine-3-carbonitrile]", "IC50": 20.4}
{"molecule": "CCOc1nn(C)c2c1C(c1ccc(C#N)cc1OC)C(C#N)=C(C)N2", "note": "(stereo not drawn) [Example 9, 4-(4-cyano-2-methoxyphenyl)-3-ethoxy-1,6-dimethyl-4,7-dihydropyrazolo[3,4-b]pyridine-5-carbonitrile]", "IC50": 661}
{"molecule": "COc1cc(C#N)ccc1C1C(C#N)=C(C)Nc2c(C)cc3nncn3c21", "note": "(stereo not drawn) [Example 10, 9-(4-cyano-2-methoxyphenyl)-5,7-dimethyl-6,9-dihydro[1,2,4]triazolo[4,3-a][1,5]naphthyridine-8-carbonitrile]", "IC50": 348}
{"molecule": "CCOc1ncc(C)c2c1C(c1ccc(C#N)c3c1OCC3)C(C(N)=O)=C(C)N2", "note": "(stereo not drawn) [Example 11, 4-(4-cyano-2,3-dihydrobenzofuran-7-yl)-5-ethoxy-2,8-dimethyl-1,4-dihydro-1,6-naphthyridine-3-formamide]", "IC50": 92.1}
{"molecule": "CCOc1nc2ccccc2c2c1C(c1ccc(C#N)cc1OC)C(C#N)=C(C)N2", "note": "(stereo not drawn) [Example 12, 4-(4-cyano-2-methoxyphenyl)-5-ethoxy-2-methyl-1H,4H-benzo[h]-1,6-naphthyridine-3-carbonitrile]", "IC50": 215}
{"molecule": "CCOc1nc2ccsc2c2c1C(c1ccc(C#N)cc1OC)C(C(N)=O)=C(C)N2", "note": "(stereo not drawn) [Example 13, 6-(4-cyano-2-methoxyphenyl)-5-ethoxy-8-methyl-6,9-dihydrothieno[3,2-h][1,6]naphthyridine-7-formamide]", "IC50": 232}
{"molecule": "CCOc1ncc(C)c2c1C(c1ccc(C#N)c3c1OCO3)C(C(N)=O)=C(C)N2", "note": "(stereo not drawn) [Example 14, 4-(7-cyanobenzo[d][1,3]dioxacyclopenten-4-yl)-5-ethoxy-2,8-dimethyl-1,4-dihydro-1,6-naphthyridine-3-formamide]", "IC50": 46.2}
{"molecule": "CC1=C(C(N)=O)C(c2ccc(C#N)c3c2OCC3)c2c(OC3CCCC3)ncc(C)c2N1", "note": "(stereo not drawn) [Example 15, 4-(4-cyano-2,3-dihydrobenzofuran-7-yl)-5-cyclopentoxy-2,8-dimethyl-1,4-dihydro-1,6-naphthyridine-3-formamide]", "IC50": 18.2}
{"molecule": "CC1=C(C(N)=O)C(c2ccc(C#N)c3c2OCC3)c2c(OCC3CC(F)(F)C3)ncc(C)c2N1", "note": "(stereo not drawn) [Example 16]", "IC50": 34.1}
{"molecule": "CC1=C(C(N)=O)C(c2ccc(C#N)c3c2OCC3)c2c(OC(F)F)ncc(C)c2N1", "note": "(stereo not drawn) [Example 17, 4-(4-cyano-2,3-dihydrobenzofuran-7-yl)-5-(difluoromethoxy)-2,8-dimethyl-1,4-dihydro-1,6-naphthyridine-3-formamide]", "IC50": 19.2}
{"molecule": "CC1=C(C(N)=O)C(c2ccc(C#N)c3c2OCC3)c2c(OC3CC3)ncc(C)c2N1", "note": "(stereo not drawn) [Example 18, 4-(4-cyano-2,3-dihydrobenzofuran-7-yl)-5-cyclopropoxy-2,8-dimethyl-1,4-dihydro-1,6-naphthyridine-3-formamide]", "IC50": 28.5}
{"molecule": "CC1=C(C(N)=O)C(c2ccc(C#N)c3c2OCC3)c2c(OCC3CC3)ncc(C)c2N1", "note": "(stereo not drawn) [Example 19, 4-cyano-2,3-dihydrobenzofuran-7-yl-5-cyclopropylmethoxy-2,8-dimethyl-1,4-dihydro-1,6-naphthyridine-3-formamide]", "IC50": 27.7}
{"molecule": "CC1=C(C(N)=O)C(c2ccc(C#N)c3c2OCC3)c2c(OC(C)C)ncc(C)c2N1", "note": "(stereo not drawn) [Example 20, 4-(4-cyano-2,3-dihydro-1-benzofuran-7-yl)-5-isopropoxy-2,8-dimethyl-1,4-dihydro-1,6-naphthyridine-3-formamide]", "IC50": 15.2}
{"molecule": "CC1=C(C(N)=O)C(c2ccc(C#N)c3c2OCC3)c2c(OC3CCC3)ncc(C)c2N1", "note": "(stereo not drawn) [Example 21, 4-(4-cyano-2,3-dihydrobenzofuran-7-yl)-5-cyclobutoxy-2,8-dimethyl-1,4-dihydro-1,6-naphthyridine-3-formamide]", "IC50": 20.2}
{"molecule": "CC1=C(C(N)=O)C(c2ccc(C#N)c3c2OCC3)c2c(OCC3CCC3)ncc(C)c2N1", "note": "(stereo not drawn) [Example 22]", "IC50": 8.7}
{"molecule": "CC1=C(C(N)=O)C(c2ccc(C#N)c3c2OCC3)c2c(OC(F)(F)F)ncc(C)c2N1", "note": "(stereo not drawn) [Example 23, 4-cyano-2,3-dihydrobenzofuran-7-yl-2,8-dimethyl-5-trifluoromethoxy-1,4-dihydro-1,6-naphthyridine-3-formamide]", "IC50": 24.8}
{"molecule": "CC1=C(C(N)=O)C(c2ccc(C#N)c3c2OCC3)c2c(OCC(F)(F)F)ncc(C)c2N1", "note": "(stereo not drawn) [Example 24, 4-cyano-2,3-dihydrobenzofuran-7-yl-2,8-dimethyl-5-(2,2,2-trifluoroethoxy)-1,4-dihydro-1,6-naphthyridine-3-formamide]", "IC50": 7.9}
{"molecule": "CCOc1ncc(C)c2c1C(c1ccc(C#N)c3c1OCCO3)C(C(N)=O)=C(C)N2", "note": "(stereo not drawn) [Example 25, 4-(8-cyano-2,3-dihydrobenzo[b][1,4]dioxin-5-yl)-5-ethoxy-2,8-dimethyl-1,4-dihydro-1,6-naphthyridine-3-formamide]", "IC50": 37.5}
{"molecule": "CCOc1ncc(C)c2c1[C@H](c1ccc(C#N)c3c1OCCC3)C(C(N)=O)=C(C)N2", "note": "[Example 32, (S)-4-(5-cyanored-8-yl)-5-ethoxy-2,8-dimethyl-1,4-dihydro-1,6-naphthyridine-3-formamide]", "IC50": 8}
{"molecule": "CCOc1ncc(C)c2c1[C@H](c1ccc(C#N)c3c1OCCO3)C(C(N)=O)=C(C)N2", "note": "[Example 40, (S)-4-(8-cyano-2,3-dihydrobenzo[b][1,4]dioxin-5-yl)-5-ethoxy-2,8-dimethyl-1,4-dihydro-1,6-naphthyridine-3-formamide]", "IC50": 12.7}
